What all share (assay): biochemical
For assay [1], the target named is T1, VIM-2 (Pseudomonas aeruginosa, UniProt Q5U7L7). The procedure: (§1) The pET24a-VIM-2 plasmid was transformed into competent BL21 (DE3) E. coli cells. The cells were plated onto an LB-agar plate with kanamycin (25 μg/mL) and incubated overnight at 37° C. A single colony was used to inoculate 50 mL of LB, containing 25 μg/mL kanamycin, and the culture was shaken overnight at 37° C. From the overnight culture, 10 mL were transferred to 4×IL LB medium containing 25 μg/mL kanamycin. The cultures were grown at 37° C. until an optical density (OD600 nm) of 0.6-0.8 was reached, at which point protein production was induced with IPTG (0.5 mM) and ZnCl2 (100 μM). The temperature was reduced to 20° C., and the cells were shaken for an additional 18 h. The cultures were harvested by centrifugation (8 Kxg) for 10 min at 4° C. The resulting pellets were re-suspended in 25 mL of 50 mM HEPES, pH 7.5, containing 500 mM NaCl (buffer B). The cells were lysed with three passes through a French Press. The lysate was centrifuged (15 Kxg) for 30 min at 4° C. The supernatant was dialyzed against 2 L of 50 mM HEPES, pH 7.5 (buffer A), for 4 h. Buffer A was used to equilibrate a 25 mL Q-Sepharose column using an FPLC. The sample was loaded onto the column, and proteins were eluted with a linear gradient 0-500 mM NaCl with buffer B. Fractions containing VIM-2, determined by SDS-PAGE, were pooled and concentrated to 2-3 mL in an Amicon ultraconcentrator equipped YM-10 membrane. Further purification was conducted with a Sephacryl S-200 gel filtration column using 50 mM HEPES, pH 7.5, containing 150 mM NaCl. Fractions containing pure VIM-2 were pooled, and metal analysis was performed.
(§2) To identify potential MBL inhibitors, the relative change in the formation of hydrolyzed nitrocefin between treated and untreated MBL was determined as percentage inhibition. 5 nM of each BML was pre-incubated for 10 mins with 50 μM of each compound, followed by the addition of 10 μM nitrocefin.
(§3) Each MBL was incubated with 50 μM of each compound, followed by the addition of nitrocefin. The relative change in absorbance is reported as percentage inhibition.

For another assay, the target named is NDM-1 (Klebsiella pneumoniae, UniProt C7C422). The procedure:
BL21 (DE3) E. coli cells containing the pET26b-ndm-1 plasmid were used to inoculate a 50 mL LB starter culture containing kanamycin (25 μg/mL). The culture was grown overnight at 37° C. The starter culture was then used to inoculate 4×1 L LB containing kanamycin (25 μg/mL). These flasks were incubated at 37° C. until culture reached an optical density of (OD600) of 0.6 to 0.8. The incubator was then set to 22° C. and the cultures were shaken for 30 min to allow them to cool. ZnCl2 ([…]) and IPTG (0.5 mM) were then added to the cultures and they were grown for 18 h at 22° C. The cells were then harvested using centrifugation (8000×g) for 10 min. The pellet was resuspended with 25 mL 50 mM HEPES, pH 7.5 containing 500 mM NaCl (Buffer B). Lysis was performed with three passes through a French Press. The lysate was centrifuged for 30 min (15,000×g) at 4° C. The supernatant was then dialyzed versus 2 L 50 mM HEPES, pH 7.5 (Buffer C) for 4 h. An FPLC was used to equilibrate a Q-Sepharose column using buffer C using a flowrate of 2.0 mL/min for 1.5 h. The lysate was then loaded onto the column and eluted with a linear NaCl gradient from 0-500 mM. Fractions containing NDM-1 were identified with SDS-PAGE. These fractions were pooled and concentrated to 2-3 mL in an Amicon ultracentrifugation concentrating unit with a YM-10 membrane. The resulting protein mixture was then loaded onto a Sephacryl S-200 gel filtration column run with 50 mM HEPES, pH 7.5 containing 150 mM NaCl (Buffer A). SDS-PAGE was used to identify fractions containing pure protein.
as §2, §3

The target in assay [2] is T1, VIM-2. The settings on record: for IC50: 5 nM MBL, 10 μM nitrocefin, read-out: VIM-2 IC50; for Ki: nitrocefin substrate, competitive-inhibition fit, read-out: VIM-2 Ki. The procedure: as §1, with “Further purification was conducted with a Sephacryl S-200 gel filtration column using 50 mM HEPES, pH 7.5, containing 150 mM NaCl.” left out
The enzyme inhibition constant (Ki) was derived from initial-velocity measurements by nonlinear regression using competitive-inhibition enzyme kinetics using Graphpad Prism 6.

[3] abbreviates: 50 μM compound, 5 nM MBL, 10 μM nitrocefin, 30 mins, read-out: VIM-2 percentage inhibition.
The mark [4] stands for this setting: 50 μM compound, 5 nM MBL, 10 μM nitrocefin, 30 mins, read-out: NDM-1 percentage inhibition.
The mark [5] stands for this setting: read-out: VIM-2 percentage inhibition.
The mark [6] stands for this setting: read-out: NDM-1 percentage inhibition, 50 μM compound, 5 nM MBL, 10 μM nitrocefin, 30 mins.
Where [7] appears, read: 50 μM compound, 5 nM MBL, 10 μM nitrocefin, 30 mins.

Read-outs that look alike come from different tables or passages of the source.

The record followed here is patent US12377086B2, “Therapeutic methods, combinations and kits” (priority 2021, dated 2025).

NDM-1, sequence (C7C422 whole entry, looked up, species assumed): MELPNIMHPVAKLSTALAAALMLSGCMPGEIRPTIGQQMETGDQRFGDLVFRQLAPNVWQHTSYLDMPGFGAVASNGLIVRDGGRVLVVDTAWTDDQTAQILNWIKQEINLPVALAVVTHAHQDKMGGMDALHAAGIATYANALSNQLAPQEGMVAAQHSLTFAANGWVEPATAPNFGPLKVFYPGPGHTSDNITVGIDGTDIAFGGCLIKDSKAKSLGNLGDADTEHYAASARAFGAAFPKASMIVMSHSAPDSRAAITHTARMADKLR

For the compound `CCOC(=O)CS` [Compound 2], the inhibition at 50 µM was 16% at VIM-2 [1] (setting [3]) and 55% on NDM-1 (setting [4]).

For the compound `CC(S)C(=O)O` (stereo not shown) [Compound 3], the inhibition at 50 µM was 17% at VIM-2 [1] (setting [3]) and 50% on NDM-1 (setting [4]). With `O=C(O)CC(S)C(=O)O` (stereo not shown) [Compound 4], the figures for the inhibition at 50 µM on VIM-2 [1] (setting [5]) and at NDM-1 (setting [6]) were 22% and 39%, respectively. For `Oc1ccnc(S)n1` [Compound 6] the same measures were 13% and 48%. As for `Nc1nc(S)ncc1C(=O)O` [Compound 7], the inhibition at 50 µM stood at 9% at VIM-2 [1] (setting [3]) and 44% at NDM-1 (setting [4]).

As to `Cc1nc(S)nc(O)c1CC(=O)O` [Compound 8], the inhibition at 50 µM at VIM-2 [1] (setting [3]) turned out to be 18%; on NDM-1 (setting [4]), 63%. As for `Sc1nccc(-c2ccccn2)n1` [Compound 9], the inhibition at 50 µM is 29% on VIM-2 [1] (setting [3]) and 43% on NDM-1 (setting [4]). Turning to `Sc1nccc(-c2cccs2)n1` [Compound 10], the inhibition at 50 µM at VIM-2 [1] (setting [3]) is 21%; on NDM-1 (setting [4]), 8%. `Cc1cc(C(=O)O)nc2[nH]c(=S)[nH]c(=O)c12` [Compound 11]: the inhibition at 50 µM on VIM-2 [1] (setting [3]) came out at 20%; on NDM-1 (setting [4]), 50%. On to `CC(=O)c1ccc(O)c(O)c1O` [Compound 12], for which the inhibition at 50 µM on VIM-2 [1] (setting [3]) amounted to 22%; on NDM-1 (setting [4]), 18%. As to `O=C(O)c1c(O)cccc1O` [Compound 14], the inhibition at 50 µM at VIM-2 [1] (setting [3]) was found to be 4%; on NDM-1 (setting [4]), 51%. On to `O=C(CCCCCCC(=O)Nc1ccccc1)NO` [Compound 15, SAHA, reference compound], for which the inhibition at 50 µM on VIM-2 [1] (setting [3]) is 18%. `O=C(NO)c1n[nH]c(Cl)n1` [Compound 16]: the inhibition at 50 µM at VIM-2 [1] (setting [3]) amounted to 8%; at NDM-1 (setting [4]), 49%. As to `O=C1c2ccccc2C(=O)N1O` [Compound 18], the inhibition at 50 µM on VIM-2 [1] (setting [3]) stood at 18%; at NDM-1 (setting [4]), 30%.

As to `Cc1nc2ccccc2c(=O)n1O` [Compound 19], the inhibition at 50 µM was found to be 22% on VIM-2 [1] (setting [3]) and 46% on NDM-1 (setting [4]). In the case of `Cc1cc(C)n(-c2nc3ccccc3c(=O)n2O)n1` [Compound 20], the inhibition at 50 µM at VIM-2 [1] (setting [3]) came to 16%. Turning to `O=c1c2ccccc2[nH]c(=S)n1O` [Compound 21], the inhibition at 50 µM on VIM-2 [1] (setting [3]) was determined as 27%. Consider `O=c1c(-c2ccco2)[n+]([O-])c2ccccc2n1O` [Compound 22], for which the inhibition at 50 µM at VIM-2 [1] (setting [3]) came out at 9%; on NDM-1 (setting [4]), 12%.

Regarding `O=c1c(-c2cccs2)[n+]([O-])c2ccccc2n1O` [Compound 23], the values for the inhibition at 50 µM on VIM-2 [1] (setting [3]) and at NDM-1 (setting [4]) were 25% and 51%, respectively. On to `O=C(O)c1cccc(C(=O)O)n1` [Compound 24], for which the results for the inhibition at 50 µM at VIM-2 [1] (setting [5]) and on NDM-1 (setting [6]) were 15% and more than 50%, respectively.

As to `O=C(O)c1cc(O)cc(C(=O)O)n1` [Compound 25], the inhibition at 50 µM on VIM-2 [1] (setting [5]) turned out to be 27%.

`CC(C)Cc1cc(C(=O)O)nc(O)n1` [Compound 26]: the inhibition at 50 µM came to 5% at VIM-2 [1] (setting [3]) and 58% on NDM-1 (setting [4]). Regarding `Cc1cc(C(=O)O)nc(O)n1` [Compound 27], the inhibition at 50 µM was found to be 17% at VIM-2 [1] (setting [3]) and 54% at NDM-1 (setting [4]). Turning to `Cc1ccc(O)c(CO)n1` [Compound 28], the values for the inhibition at 50 µM at VIM-2 [1] (setting [3]) and at NDM-1 (setting [4]) were 25% and 53%, respectively. Take `CC(C)c1cc(C(=O)O)nc2[nH][nH]c(=O)c12` [Compound 29]: the inhibition at 50 µM on VIM-2 [1] (setting [3]) is 18%.

For the compound `Cc1cc(C(=O)O)nc2[nH][nH]c(=O)c12` [Compound 30], the inhibition at 50 µM worked out at 21% at VIM-2 [1] (setting [3]) and 66% at NDM-1 (setting [4]). In turn, `Oc1ccc2ccccc2n1` [Compound 32] yielded a VIM-2 percentage inhibition on VIM-2 [1] (setting [7]) of 9%. Further, the NDM-1 percentage inhibition at NDM-1 (setting [7]) amounted to 0%. Consider `Oc1cnc2ccccc2c1` [Compound 33, 3-hydroxyquinoline], for which the inhibition at 50 µM on VIM-2 [1] (read-out: VIM-2 percentage inhibition, 50 μM compound, 5 nM MBL, 10 μM nitrocefin, 30 mins) came out at 95%; at NDM-1 (setting [6]) it was 33%. Compound `Oc1ccnc2ccccc12` [Compound 34] displayed a VIM-2 percentage inhibition on VIM-2 [1] (setting [7]) of 9%. Further, the NDM-1 percentage inhibition on NDM-1 (setting [7]) came to 1%.

For the compound `Oc1cccc2ncccc12` [Compound 35], the VIM-2 percentage inhibition on VIM-2 [1] (setting [7]) is on record as 6%. On NDM-1 (setting [7]), this compound registered an NDM-1 percentage inhibition of 6%. For `Oc1ccc2ncccc2c1` [Compound 36], on VIM-2 [1] (setting [7]), the VIM-2 percentage inhibition stood at 7%. The compound further registered an NDM-1 percentage inhibition at NDM-1 (setting [7]) of 1%.

On VIM-2 [1] (setting [7]), `Oc1ccc2cccnc2c1` [Compound 37] displayed a VIM-2 percentage inhibition of 3%. In addition, on NDM-1 (setting [7]), the NDM-1 percentage inhibition is 8%. On to `Nc1cccc2cccnc12` [Compound 38], for which the VIM-2 percentage inhibition at VIM-2 [1] (setting [7]) is given as 43%. The same compound registered an NDM-1 percentage inhibition on NDM-1 (setting [7]) of 3%. For `[O-][n+]1cccc2cccc(O)c21` [Compound 39], in that order: 27% and 7%. As for `Cc1ccc2cccc(O)c2n1` [Compound 40], the VIM-2 percentage inhibition at VIM-2 [1] (setting [7]) came to 77%. The same compound displayed an NDM-1 percentage inhibition on NDM-1 (setting [7]) of 9%. In turn, `Nc1ccc(O)c2ncccc12` [Compound 42] came in with a VIM-2 percentage inhibition at VIM-2 [1] (setting [7]) of 96%. At VIM-2 [2], the concentration for half-maximal inhibition (IC50) is 3800 nM and the Ki turned out to be 880 nM.

Turning to `O=C(O)c1cnc2c(O)cccc2c1` [Compound 43], the VIM-2 percentage inhibition at VIM-2 [1] (setting [7]) worked out at 91%. For the same compound, at VIM-2 [2], the IC50 worked out at 1600 nM and the inhibition constant Ki is 530 nM.

Turning to `O=C(O)c1ccnc2c(O)cccc12` [Compound 44], the VIM-2 percentage inhibition on VIM-2 [1] (setting [7]) was found to be 92%. As to `Oc1ccc(Cl)c2cccnc12` [Compound 46], the VIM-2 percentage inhibition on VIM-2 [1] (setting [7]) was determined as 98%. At VIM-2 [2], the 50% inhibitory concentration (IC50) was determined as 4100 nM and the Ki was found to be 960 nM. Regarding `Oc1c(Cl)cc(Cl)c2cccnc12` [Compound 47], the VIM-2 percentage inhibition at VIM-2 [1] (setting [7]) amounted to 96%. For the same compound, on VIM-2 [2], the IC50 is 4100 nM and the Ki was 1100 nM.

`Oc1c(Br)cc(Br)c2cccnc12` [Compound 49] had a VIM-2 percentage inhibition on VIM-2 [1] (setting [7]) of 92%.

What is called inhibition is how much of the control response was suppressed. In general, IC50 refers to the concentration that inhibits the measured activity by half. For orientation: Ki means the equilibrium dissociation constant of an inhibitor or competing ligand from its target.
